Results published in patent US4545993A, “1,2-Benzopyran-6-yl acetic acid compound and pharmaceutical compositions containing said compounds” (priority 1981, dated 1985).

Assays:
[1] = Acute toxicity, oral, number of deaths up to 72 hours; conditions: mouse, in vivo
Experimental: Groups of 10 male dd mice weighing some 18 g, were orally administered 800 mg/Kg of each of the examined drugs and the number of deaths up to 72 hours later was recorded.

[2] = test system: stretching after acetic acid (male dd mice); experiment: Analgesic effects by acetic acid writhing test; type: in vivo; conditions: oral, 0.6% acetic acid i.p.
Experimental: Thirty minutes after the examined drug was orally given, 0.1 ml/10 g of 0.6% acetic acid was intraperitoneally administered to groups of 10 male dd mice weighing some 18 g. The number of stretching was calculated during an observation period of 15 to 20 minutes after acetic acid treatment. The average inhibition rate of stretching among 8 animals was regarded as the inhibition rate of the drug, excluding 2 animals showing maximum and minimum numbers of stretching.

[3] = test system: pseudopain reactions (dd mice); experiment: Analgesic effects by a modified Haffner method; type: in vivo; conditions: oral, with 2 mg/Kg morphine hydrochloride s.c.
Experimental: Groups of 10 dd mice were orally administered the examined drugs and 30 minutes later 2 mg/Kg of morphine hydrochloride, the threshhold dose, was subcutaneously injected. At 15, 30, 45 and 60 minute intervals thereafter, the root of the mouse's tail was squeezed with a Kocher's forcepts.

[4] = 800 mg/Kg, oral, male dd mice, up to 72 hours

| SMILES | mortality at 72 h [1, 4] [%] | Analgesic effects (acetic acid writhing test; average inhibition rate of stretching) ([2]; 50 mg/Kg) [%] | Analgesic effects (acetic acid writhing test; average inhibition rate of stretching) ([2]; 100 mg/Kg) [%] | Analgesic effects (modified Haffner method) ([3]; 50 mg/Kg) [%] | Analgesic effects (modified Haffner method) ([3]; 100 mg/Kg) [%] | mortality at 72 h ([1]; po, 800 mg/kg) [%] |
| --- | --- | --- | --- | --- | --- | --- |
| Cc1c(N(C)C)c(=O)n(-c2ccccc2)n1C [Aminopyrine, reference compound] | 80 | 18 | 57 | 20 | 55 | – |
| CC(C(=O)O)c1cc(F)c2c(c1)C=CC(C)(C)O2 (centres unmarked) [Compound 1, 2-(2,2-dimethyl-8-fluoro-1,2-benzopyran-6-yl)propionic acid] | 0 | 59 | 76 | 40 | 70 | – |
| CC(C(=O)O)c1ccc2c(c1)C=CC(C)(C)O2 (centres unmarked) [Compound 2, 2-(2,2-Dimethyl-1,2-benzopyran-6-yl)propionic acid] | 0 | 44 | 76 | 25 | 50 | – |
| CC(C(=O)O)c1cc(Cl)c2c(c1)C=CC(C)(C)O2 (centres unmarked) [Compound 3, 2-(2,2-Dimethyl-8-chloro-1,2-benzopyran-6-yl)propionic acid] | 0 | – | – | 20 | 65 | – |
| CC(C(=O)O)c1cc(Cl)c2c(c1)C=CCO2 (centres unmarked) [Compound 4, 2-(8-Chloro-1,2-benzopyran-6-yl)propionic acid] | 30 | 36 | 61 | 30 | 55 | – |
| O=C(O)Cc1cc(Cl)c2c(c1)C=CCO2 [Compound 5, (8-Chloro-1,2-benzopyran-6-yl)acetic acid] | – | – | – | 35 | 70 | – |
| CC(C(=O)O)c1cc(Cl)c2c(c1)CCC(C)(C)O2 (centres unmarked) [Compound 6, 2-(2,2-dimethyl-8-chlorochroman-6-yl)propionic acid] | 30 | 27 | 68 | 30 | 60 | – |
| CC(C(=O)O)c1cc(Cl)c2c(c1)CCCO2 (centres unmarked) [Compound 7, 2-(8-Chlorochroman-6-yl)propionic acid] | 0 | – | – | – | – | – |
| CCCCC1C(=O)N(c2ccccc2)N(c2ccccc2)C1=O [Phenylbutazone, reference compound] | – | – | – | – | – | 60 |
